Measured values reported in patent publication US9035056B2, “Pyrido[4,3-b]indole and pyrido[3,4-b]indole derivatives and methods of use” (Medivation Technologies, Inc., priority 2011, dated 2015).

What was measured:
[1] = target: T1, rat adrenergic α1B receptor (Rattus norvegicus, UniProt P15823); assay: Adrenergic α1B radioligand binding ([3H]Prazosin); conditions: 0.1 μM compound; 0.1 µM
T1 construct: rat adrenergic α1B receptor obtained from Wistar Rat liver; from tissue; host or cells: Wistar rat liver
T1 sequence (P15823 1-515): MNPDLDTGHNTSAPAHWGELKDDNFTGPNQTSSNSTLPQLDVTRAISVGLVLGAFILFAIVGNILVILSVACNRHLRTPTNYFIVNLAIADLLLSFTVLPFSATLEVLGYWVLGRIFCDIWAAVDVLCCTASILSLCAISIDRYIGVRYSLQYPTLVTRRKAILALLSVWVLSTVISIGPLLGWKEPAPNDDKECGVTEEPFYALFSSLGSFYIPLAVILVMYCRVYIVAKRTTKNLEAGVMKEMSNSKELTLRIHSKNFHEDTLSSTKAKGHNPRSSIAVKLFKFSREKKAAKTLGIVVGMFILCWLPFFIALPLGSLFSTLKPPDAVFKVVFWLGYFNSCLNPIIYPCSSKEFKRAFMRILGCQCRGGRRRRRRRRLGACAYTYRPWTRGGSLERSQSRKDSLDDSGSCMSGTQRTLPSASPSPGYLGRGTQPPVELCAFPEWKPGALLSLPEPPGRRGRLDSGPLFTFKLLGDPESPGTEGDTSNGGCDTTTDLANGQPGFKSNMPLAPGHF
Experimental: To evaluate in radioligand binding assays the activity of compounds of the invention, rat adrenergic α1B receptor obtained from Wistar Rat liver (Garcia-S'ainz, J. et al, Biochem. Biophys. Res. Commun. 186:760, 1992; Michel, A. et al, Br. J. Pharmacol. 98:883, 1989) in a modified Tris-HCl buffer (50 mM Tris-HCl buffer, pH 7.4, 0.5 mM EDTA) was used. Compounds of the invention were incubated with 0.25 nM [^3H]Prazosin for 60 min at 25° C. Non-specific binding was estimated in the presence of 10 μM phentolamine. Receptor proteins were filtered and washed, the filters were then counted to determine [^3H]Prazosin specifically bound. Compounds were screened at 1 μM or lower, using 1% DMSO as vehicle. Biochemical assay results are presented as the percent inhibition of specific binding in Table 3.

[2] = target: T2, human recombinant adrenergic α2A receptor (Homo sapiens, UniProt P08913); assay: Adrenergic α2A radioligand binding ([3H]MK-912); conditions: 0.1 μM compound; 0.1 µM
T2 construct: expressed in transfected cells; host or cells: insect Sf9 cells
T2 sequence (P08913 1-465): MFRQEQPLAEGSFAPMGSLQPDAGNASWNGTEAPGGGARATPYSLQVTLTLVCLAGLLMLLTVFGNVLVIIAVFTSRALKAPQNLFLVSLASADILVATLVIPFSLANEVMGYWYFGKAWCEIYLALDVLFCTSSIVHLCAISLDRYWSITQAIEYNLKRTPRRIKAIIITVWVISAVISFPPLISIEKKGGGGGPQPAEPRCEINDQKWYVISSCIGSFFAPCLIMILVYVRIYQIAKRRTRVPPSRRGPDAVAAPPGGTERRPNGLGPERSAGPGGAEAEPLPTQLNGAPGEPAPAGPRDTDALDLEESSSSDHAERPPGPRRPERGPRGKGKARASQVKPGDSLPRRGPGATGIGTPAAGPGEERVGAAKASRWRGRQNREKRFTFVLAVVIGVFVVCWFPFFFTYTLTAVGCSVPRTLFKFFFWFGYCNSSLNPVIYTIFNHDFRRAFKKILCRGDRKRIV
Experimental: To evaluate in radioligand binding assays the activity of compounds of the invention, human recombinant adrenergic α2A receptor expressed in insect Sf9 cells (Uhlen, S. et al, J. Pharmacol. Exp. Ther. 271:1558, 1994) in a modified Tris-HCl buffer (50 mM Tris-HCl, pH 7.4, 12.5 mM MgCl2, 2 mM EDTA) was used. Compounds of invention were incubated with 1 nM [^3H]MK-912 for 60 min at 25° C. MK-912 is (2S-trans)-1,3,4,5′,6,6′,7,12b-octahydro-1′,3′-dimethyl-spiro[2H-benzofuro[2,3-a]quinolizine-2,4′(1′H)-pyrimidin]-2′(3′H)-one hydrochloride Non-specific binding was estimated in the presence of 10 μM WB-4101 (2-(2,6-Dimethoxyphenoxyethyl)aminomethyl-1,4-benzodioxane hydrochloride). Receptor proteins were filtered and washed, the filters were then counted to determine [^3H]MK-912 specifically bound. Compounds were screened at 1 μM or lower, using 1% DMSO as vehicle. Biochemical assay results are presented as the percent inhibition of specific binding in Table 3.

[3] = target: T3, human recombinant adrenergic α2B receptor (Homo sapiens, UniProt P18089); assay: Adrenergic α2B radioligand binding ([3H]Rauwolscine); conditions: 0.03 μM compound; 0.03 µM
T3 construct: expressed in transfected cells; host or cells: CHO-K1
T3 sequence (P18089 1-450): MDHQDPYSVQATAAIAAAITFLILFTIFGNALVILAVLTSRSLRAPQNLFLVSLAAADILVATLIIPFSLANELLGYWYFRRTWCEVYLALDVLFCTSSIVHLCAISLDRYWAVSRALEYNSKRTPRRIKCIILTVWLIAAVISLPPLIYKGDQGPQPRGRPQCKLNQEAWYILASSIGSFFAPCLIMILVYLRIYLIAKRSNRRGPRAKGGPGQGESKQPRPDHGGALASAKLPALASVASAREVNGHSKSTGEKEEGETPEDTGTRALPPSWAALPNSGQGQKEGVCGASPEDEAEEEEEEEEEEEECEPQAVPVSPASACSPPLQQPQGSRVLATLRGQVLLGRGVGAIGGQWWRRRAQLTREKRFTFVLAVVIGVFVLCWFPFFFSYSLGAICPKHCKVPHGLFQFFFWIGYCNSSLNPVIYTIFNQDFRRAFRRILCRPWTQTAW
Experimental: To evaluate in radioligand binding assays the activity of compounds of the invention, human recombinant adrenergic α2B receptor expressed in Chinese hamster ovary (CHO) K1 cells (Uhlen, S. et al, Eur. J. Pharmacol. 343(1):93, 1998) in a modified Tris-HCl buffer (50 mM Tris-HCl, pH 7.4, 12.5 mM MgCl2, 1 mM EDTA, 0.2% BSA) was used. Compounds of the invention were incubated with 2.5 nM [^3H]Rauwolscine for 60 min at 25° C. Non-specific binding was estimated in the presence of 10 μM Prazosin. Receptor proteins were filtered and washed, the filters were then counted to determine [^3H]Rauwolscine specifically bound. Compounds were screened at 1 μM or lower, using 1% DMSO as vehicle. Biochemical assay results are presented as the percent inhibition of specific binding in Table 3.

[4] = target: T4, human recombinant histamine H1 receptor (Homo sapiens, UniProt P35367); assay: Histamine H1 radioligand binding ([3H]Pyrilamine); conditions: 0.1 μM compound; 0.1 µM
T4 construct: expressed in transfected cells; host or cells: CHO-K1
T4 sequence (P35367 whole entry): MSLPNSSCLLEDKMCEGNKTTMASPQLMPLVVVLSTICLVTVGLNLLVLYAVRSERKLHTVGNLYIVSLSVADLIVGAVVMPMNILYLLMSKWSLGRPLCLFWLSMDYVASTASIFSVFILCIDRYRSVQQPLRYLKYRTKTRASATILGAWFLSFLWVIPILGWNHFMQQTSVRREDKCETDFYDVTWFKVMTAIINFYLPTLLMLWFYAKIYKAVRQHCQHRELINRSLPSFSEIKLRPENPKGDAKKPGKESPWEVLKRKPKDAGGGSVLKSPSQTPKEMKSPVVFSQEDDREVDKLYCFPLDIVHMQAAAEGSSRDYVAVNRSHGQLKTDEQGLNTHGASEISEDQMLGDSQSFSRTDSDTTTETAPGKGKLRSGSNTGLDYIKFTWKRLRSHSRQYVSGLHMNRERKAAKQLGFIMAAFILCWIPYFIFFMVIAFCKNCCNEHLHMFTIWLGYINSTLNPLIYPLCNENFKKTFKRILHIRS
Experimental: To evaluate in radioligand binding assays the activity of compounds of the invention, human recombinant histamine H1 receptor expressed in Chinese hamster ovary (CHO) K1 cells (De Backer, M. et al, Biochem. Biophys. Res. Comm. 197(3):1601, 1993) in a modified Tris-HCl buffer (50 mM Tris-HCl, pH 7.4, 2 mM MgCl2, 100 mM NaCl, 250 mM Sucrose) was used. Compounds of the invention were incubated with 1.2 nM [^3H]Pyrilamine for 180 min at 25° C. Non-specific binding was estimated in the presence of 1 μM Pyrilamine. Receptor proteins were filtered and washed, the filters were then counted to determine [^3H]Pyrilamine specifically bound. Compounds were screened at 1 μM or lower, using 1% DMSO as vehicle. Biochemical assay results are presented as the percent inhibition of specific binding in Table 3.

| Structure (SMILES) | Percentage inhibition of ligand binding, Adrenergic α1B [1] | Percentage inhibition of ligand binding, Adrenergic α2A [2] | Percentage inhibition of ligand binding, Adrenergic α2B [3] | Binding data (Percentage inhibition) Histamine H1 (0.1 μM) [4] |
| --- | --- | --- | --- | --- |
| Cc1ccc2c(c1)c1c(n2CC2(O)CCc3ccccc32)CCN(C)C1 (single isomer, unassigned) [ii-111a] | 94% | 45% | 76% | – |
| Cc1ccc2c(c1)c1c(n2CC2(O)CCCc3ccncc32)CCN(C)C1 (single isomer, unassigned) [ii-113b] | 82% | 8% | 68% | 6% |
| Cc1ccc2c(c1)c1c(n2CC2(O)CCc3ccccc32)CCN(C)C1 (single isomer, unassigned) [ii-111b] | 51% | 22% | 0% | – |
